Measurements as given in US3941882A, “Rodenticidal imidazo-pyridines” (priority 1974, dated 1976).
Several values for one entry are separate records, joined by “and”; a condition that tells them apart may be missing. Identical values can stand only once.

Key:
[1] = tested on: coagulation (prothrombin time, activated partial thromboplastin, thrombin clotting time, fibrinogen); test: Coagulation studies in dogs: clotting times and fibrinogen (Table V); format: in vivo, dogs (beagles); conditions: for Activated Partial Thromboplastin Time / Fibrinogen Levels / Prothrombin Time / Thrombin Clotting Time: 40 mg./kg. oral on each of 3 successive days, fourth day, per dog
Description: (§1) Each of 1-methoxy-6-chloro-2-trifluoromethyl-1H-imidazo-(4,5-b)pyridine and 1-hydroxy-6-chloro-2-trifluoromethyl-1H-imidazo(4,5-b)pyridine was evaluated in coagulation studies in dogs (beagles weighing about 10 kilograms each). Two dogs were employed with each compound, one female and one male.
In the first part of the evaluation, a blood sample was taken from each dog prior to any treatment with the respective compound. The sample was citrated and centrifuged for 10-15 minutes to segregate the plasma, which was separated and quick frozen. The dogs were then treated: each dog received 40 mg./kg. of the respective compound on each of 3 successive days; administration was by the oral route. On the fourth day, blood samples were again taken and processed as described above. Throughout the test, the dogs were provided with adequate food and water and otherwise maintained under good conditions. The samples were subsequently thawed and analyzed for prothrombin time activated partial thromboplastin, thrombin clotting time, and fibrinogen levels. The first three analyses were conducted on a "Bioquest Fibrometer", produced by Baltimore Biological Division of Becton and Dickinson at Cockeysville, Maryland 21030, Fibrinogen levels were determined by the method of H. O. Bang, 9 Scand. J. Clin. Lab. Inves. 205 (1957).

[2] = tested on: Prothrombin (II); test: Coagulation factor concentration in dogs, factor II (Table VI); format: in vivo, dogs (beagles); conditions: 40 mg./kg. oral x 3 days; per dog
Description: as §1
(§2) In the second part of the evaluation, a sample was taken from each of the same four dogs prior to any treatment (at the same time as the initial sample for the first part of the evaluation), and the samples were pooled and evaluated for the concentration of individual clotting factors, to serve as a control. Following the treatment described above, a sample was again taken from each dog and individually analyzed in the same manner. The control figure was considered as 100 percent and the scores for the treated dogs were reported as percent of the control figure. Analyses were by the following methods:
Ii f. koller et al., 6 Acta Haem. 1 (1951).

[3] = tested on: Ac Globulin (V); test: Coagulation factor concentration in dogs, factor V (Table VI); format: in vivo, dogs (beagles); conditions: 40 mg./kg. oral x 3 days; per dog
Description: as §1
as §2, with “figure.” for “figure. Analyses were by the following methods:”

[4] = tested on: Proconvertin (VII); test: Coagulation factor concentration in dogs, factor VII (Table VI); format: in vivo, dogs (beagles); conditions: 40 mg./kg. oral x 3 days; per dog
Description: as §1, §2
Vii f. bachman et al., 1 Thrombosis Diathes. Haemorrh. 169 (1957)

[5] = tested on: AHG (VIII); test: Coagulation factor concentration in dogs, factor VIII (Table VI); format: in vivo, dogs (beagles); conditions: 40 mg./kg. oral x 3 days; per dog
Description: as §1, §2
Viii r. d. langdell et al., 41 J. Lab. Clin. Med. 637 (1953).

[6] = tested on: PTC (IX); test: Coagulation factor concentration in dogs, factor IX (Table VI); format: in vivo, dogs (beagles); conditions: 40 mg./kg. oral x 3 days; per dog
Description: as §1, §2
Ix w. f. stapp, 10 Scand. J. Clin. Lab. Inves. 169 l (1958).

[7] = tested on: Stuart Factor (X); test: Coagulation factor concentration in dogs, factor X (Table VI); format: in vivo, dogs (beagles); conditions: 40 mg./kg. oral x 3 days; per dog
Description: as §1
as §2, with “figure.” for “figure. Analyses were by the following methods:”

[8] = tested on: PTA (XI); test: Coagulation factor concentration in dogs, factor XI (Table VI); format: in vivo, dogs (beagles); conditions: 40 mg./kg. oral x 3 days; per dog
Description: as §1, §2
Xi s. i. rapaport, 57 J. Lab. Clin. Med. 771 (1961).

[9] = tested on: Hageman Factor (XII); test: Coagulation factor concentration in dogs, factor XII (Table VI); format: in vivo, dogs (beagles); conditions: 40 mg./kg. oral x 3 days; per dog
Description: as §1, §2
Xii o. d. ratnoff in Thrombosis and Bleading Disorders, ed. by N. U. Bang et al. (G. Thieme, and Academic Press, N.Y., 1971), pages 214-221.

[10] = tested on: prothrombin time; test: Prothrombin time in male rats (Tables III and IV); format: in vivo, rats (Harlan albino strain); conditions: five days, group of 5 rats
Description: Representative compounds were evaluated for prothrombin time in standard laboratory male rats (Harlan albino strain) of weanling age. A standard laboratory animal diet was fed to one group of 5 rats to serve as a control; other groups of 5 rats received modified diets, each diet being the standard laboratory animal diet modified by the incorporation therein of 0.08 percent of the respective compound. Feeding was continued for five days, at which time a blood sample was taken from each rat and analyzed for prothrombin time. The analytical method was that of A. J. Quick, "The Determination of Prothrombin," 190 Am. J. Med. Sci. 501 (1935): and it was performed on the "Electra 600", a machine available from the Medical Laboratory Automation, Inc. The results are reported in Table III.
Additional evaluations of the effect of representative compounds of prothrombin time were conducted. The procedures were the same as those reported in Examples 30-33 except that the concentration of the respective compound was 0.02 percent.

Question: What does the source list for `On1c(C(F)(F)F)nc2ncc(Cl)cc21` [1-hydroxy-6-chloro-2-trifluoromethyl-1H-imidazo(4,5-b)pyridine]?
Answer: Activated Partial Thromboplastin Time [1]: 22.9 s and 16.0 s; Fibrinogen Levels [1]: 223 mg% and 218 mg%; Prothrombin Time [1]: 9.9 s and 6.9 s; Thrombin Clotting Time [1]: 12.2 s and 12.0 s; Coagulation Factor, Prothrombin (II) [2]: 70 % of Control; Coagulation Factor, Ac Globulin (V) [3]: 100 % of Control; Coagulation Factor, Proconvertin (VII) [4]: 11 % of Control and 20 % of Control; Coagulation Factor, AHG (VIII) [5]: 94 % of Control and 100 % of Control; Coagulation Factor, PTC (IX) [6]: 45 % of Control and 66 % of Control; Coagulation Factor, Stuart Factor (X) [7]: 11 % of Control and 25 % of Control; Coagulation Factor, PTA (XI) [8]: 128 % of Control and 140 % of Control; Coagulation Factor, Hageman Factor (XII) [9]: 37 % of Control and 18 % of Control

Question: With `COn1c(C(F)(F)F)nc2ncc(Cl)cc21` [1-methoxy-6-chloro-2-trifluoromethyl-1H-imidazo(4,5-b)pyridine] as the compound, how does the Deaths ([10]; 0.02 percent in diet) read?
Answer: none

Question: And the “Range of Prothrombin Time” value ([10]; 0.02 percent in diet)?
Answer: 19.5 to 27.5 s

Question: What about the Deaths ([10]; 0.08 percent in diet) of the same compound?
Answer: none

Question: And the “Range of Prothrombin Time” value ([10]; 0.08 percent in diet)?
Answer: 50.1 to 109.1 s

Question: What about the “Activated Partial Thromboplastin Time” value [1] of the same compound?
Answer: 18.9 s and 26.2 s

Question: What about the “Fibrinogen Levels” value [1] of the same compound?
Answer: 236 mg% and 222 mg%

Question: And the “Prothrombin Time” value [1]?
Answer: 12.2 s and 12.9 s

Question: What about the “Thrombin Clotting Time” value [1] of the same compound?
Answer: 10.5 s and 13.9 s

Question: And the “Prolongation of activated partial thromboplastin time (in words)” value ([1]; dogs, 40 mg./kg. oral x 3 days)?
Answer: prolongs activated partial thromboplastin time

Question: And the “Coagulation Factor, Prothrombin (II)” value [2]?
Answer: 39 % of Control

Question: And the “Coagulation Factor, Ac Globulin (V)” value [3]?
Answer: 100 % of Control

Question: What about the “Coagulation Factor, Proconvertin (VII)” value [4] of the same compound?
Answer: 9 % of Control and 14 % of Control

Question: And the “Coagulation Factor, AHG (VIII)” value [5]?
Answer: 124 % of Control and 122 % of Control

Question: What about the “Coagulation Factor, PTC (IX)” value [6] of the same compound?
Answer: 26 % of Control and 35 % of Control

Question: What about the “Coagulation Factor, Stuart Factor (X)” value [7] of the same compound?
Answer: 4 % of Control and 6 % of Control

Question: What about the “Coagulation Factor, PTA (XI)” value [8] of the same compound?
Answer: 224 % of Control and 200 % of Control

Question: And the “Coagulation Factor, Hageman Factor (XII)” value [9]?
Answer: 25 % of Control and 43 % of Control
